By inhibition is commonly meant how much of the control response was suppressed.

The record followed here is US5081131A, “Omega-((hetero)alkyl)benz(cd)-indol-2-amines” (American Cyanamid Company, priority 1988, dated 1992).

Counter-ions that a name gives are not always drawn.

The target in assay [1] is T1, thromboxane synthetase enzyme (Rattus norvegicus, UniProt P49430).
T1 construct: endogenous in cells; host or cells: washed platelets from arterial blood of male Okamoto-Aoki spontaneously hypertensive rats (animals from Taconic Farms, Germantown, N.Y.)
T1 sequence (P49430 1-533): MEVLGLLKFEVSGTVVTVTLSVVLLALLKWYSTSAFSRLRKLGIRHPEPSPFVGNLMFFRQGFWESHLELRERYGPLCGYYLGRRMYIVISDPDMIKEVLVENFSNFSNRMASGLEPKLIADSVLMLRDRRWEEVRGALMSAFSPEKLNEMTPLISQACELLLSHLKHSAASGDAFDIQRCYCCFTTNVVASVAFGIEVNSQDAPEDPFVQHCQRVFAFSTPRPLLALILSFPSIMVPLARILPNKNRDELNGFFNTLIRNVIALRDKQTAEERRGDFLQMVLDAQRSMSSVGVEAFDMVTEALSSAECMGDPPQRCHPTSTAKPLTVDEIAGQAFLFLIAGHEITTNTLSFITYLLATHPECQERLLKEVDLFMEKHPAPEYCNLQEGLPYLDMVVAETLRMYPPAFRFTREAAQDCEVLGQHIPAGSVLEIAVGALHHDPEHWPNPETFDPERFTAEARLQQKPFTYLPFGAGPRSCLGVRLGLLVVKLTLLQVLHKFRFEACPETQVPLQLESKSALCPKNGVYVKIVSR
The experiment in a line: Thromboxane synthetase enzyme inhibition (TXB2 formation in washed platelets, RIA). Type of assay: cell-based, spontaneously hypertensive rat. Conditions: 1×10^-4 Molar, SHR platelets, 10 min at 37° C.; for inhibition at 100 µM: read-out: % Inhibition (Thromboxane Synthetase Enzyme Inhibition). How it is done: The blood was diluted with 3 ml cold saline and centrifuged at room temperature for 15 min at 468×g. The platelet rich plasma (PRP) was separated. The platelets were isolated by certrifuging the PRP for 10 minutes at 1060×g and washed in 4 ml cold oxygenated Krebs phosphate buffer, pH 7.4. The chilled platelets recovered from centrifuging at 800×g for 10 minutes were resuspended in oxygenated Krebs phosphate buffer and diluted to contain 4.0-6.0×10^4 platelets/micro-liters. The inhibition of TX formation was studied by determining the concentration of thromboxane B2 (TXB2), the stable hydrolysis product of TXA2. Assay samples prepared on ice, contained 200 micro-liters platelet suspension, 50 micro-liters saline, and 50 micro-liters […] (saline) or drug under study. The test drug (0.003 mole) was dissolved in 5 ml of saline. […] The assay samples were incubated for 10 minutes at 37° C. in a metabolic shaker at about 60 rpm. The reaction was terminated by immersing the tubes in an ice bath and adding 50 micro-liters of 0.5M citric acid. The samples were centrifuged for 10 minutes at 2000 rpm at 4° C., and the supernatants were decanted.

In assay [2] the test system is spontaneously hypertensive rats. The assay is described as follows: Hypotensive activity in spontaneously hypertensive rats (MABP). Conditions: SHR, gavage, two doses of 10 mg/kg or less 24 h apart, MABP at 28 h; average baseline 160±1.5 mm Hg. The format is in vivo, rat (Okamoto strain). As for the experimental part:
The novel compounds of the present invention are active hypotensive agents and were tested for hypotensive activity by the method of P. S. Chan and D. Poorvin, Clinical and Experimental Hypertension, 1 (6), 817-830 (1979). Male, 16 week old, spontaneously hypertensive rats of the Okamoto strain, from Taconic Farms, Germantown, N.Y., having an average mean arterial blood pressure of 160±1.5 mm of mercury, were used in the test. One to 4 rats were used per test compound. A rat was dosed by gavage with a test compound, suspended in 2% pre-boiled starch at a concentration of 50 mg/ml, at a doses of 10 mg/kg of body weight or less, with 0.9% sodium chloride loading at a dose of 25 ml/kg of body weight. A second identical dose of the test compound, without sodium chloride loading was given 24 hours later. At 28 hours after initial dose the mean arterial blood pressure (MABP) was measured. The procedure was repeated in a second and third rat when necessary.

For the compound `C(=C/Cn1ccnc1)/CNC1=Nc2cccc3cccc1c23` [(Z)-N-(4-(1H-imidazol-1-yl)-2-butenyl)benz(cd)indol-2-amine, hydriodide], in assay [1], the “% Inhibition (Thromboxane Synthetase Enzyme Inhibition)” value (“% Inhibition” below) stood at 100%. The “Avg. MABP in mm Hg (No. of Rats)” value in assay [2] is listed as 106 mm Hg.

On to `O=C(O)/C=C/C(=O)O.c1ccc(CCNC2=Nc3cccc4cccc2c34)nc1` [N-(2-(2-Pyridinyl)ethyl)benz(cd)indol-2-amine, fumarate], for which, in assay [1], the inhibition at 100 µM was determined as 94%. The “Avg. MABP in mm Hg (No. of Rats)” value in assay [2] worked out at 137 mm Hg.

With `O=C(O)/C=C/C(=O)O.c1ccc(OCCNC2=Nc3cccc4cccc2c34)nc1` [N-(2-(2-Pyridinyloxy)ethyl)benz(cd)indol-2-amine fumarate], the inhibition at 100 µM in assay [1] was found to be 88%. The “Avg. MABP in mm Hg (No. of Rats)” value in assay [2] is reported as 140 mm Hg.

As to `c1cc2c3c(cccc3c1)C(NCCc1ccncc1)=N2` [N-(2-(4-Pyridinyl)ethyl)benz(cd)indol-2-amine, sesqui-fumarate], the inhibition at 100 µM in assay [1] was 88%. Moreover, in assay [2], the “Avg. MABP in mm Hg (No. of Rats)” value was determined as 115 mm Hg.

On to `O=C(O)/C=C/C(=O)O.c1coc(CNC2=Nc3cccc4cccc2c34)c1` [N-(2-Furanylmethyl)benz(cd)indol-2-amine fumarate], for which the inhibition at 100 µM in assay [1] worked out at 93%. Also, the “Avg. MABP in mm Hg (No. of Rats)” value in assay [2] is given as 142 mm Hg.

`CC(CNC1=Nc2cccc3cccc1c23)Cc1cccnc1.O=C(O)/C=C/C(=O)O` (centres unmarked) [N-(2-Methyl-3-(3-pyridinyl)propyl)benz(cd)indol-2-amine, fumarate]: in assay [1], the inhibition at 100 µM was 99%. Moreover, the “Avg. MABP in mm Hg (No. of Rats)” value in assay [2] is on record as 124 mm Hg.

On to `O=C(O)/C=C/C(=O)O.c1csc(CNC2=Nc3cccc4cccc2c34)c1` [N-(2-Thienylmethyl)benz(cd)indol-2-amine, fumarate], for which the inhibition at 100 µM in assay [1] was determined as 93%. Also, the “Avg. MABP in mm Hg (No. of Rats)” value in assay [2] is reported as 141 mm Hg.

Turning to `O=C(O)/C=C/C(=O)O.c1cc2c3c(cccc3c1)C(NCCCn1cnc3ccccc31)=N2` [N-(3-(1H-benzimidazol-1-yl)propyl)benz(cd)indol-2-amine, fumarate], the “% Inhibition” value in assay [1] stood at 90%. In addition, in assay [2], the “Avg. MABP in mm Hg (No. of Rats)” value was 123 mm Hg.

As for `c1cc2c3c(cccc3c1)C(NCCCn1cnc3ccccc31)=N2` [N-(3-(1H-benzimidazol-1-yl)propyl)benz(cd)indol-2-amine], the “% Inhibition” value in assay [1] was found to be 60%. Besides, in assay [2], the “Avg. MABP in mm Hg (No. of Rats)” value is reported as 124 mm Hg.

For `CC(CNC1=Nc2cccc3cccc1c23)Cn1ccnc1.Cl.Cl` (centres unmarked) [N-(3-(1H-imidazol-1-yl)-2-methylpropyl)benz(cd)indol-2-amine, dihydrochloride], the inhibition at 100 µM in assay [1] was 95%. Also, the “Avg. MABP in mm Hg (No. of Rats)” value in assay [2] is recorded as 113 mm Hg.

Consider `CC(CCNC1=Nc2cccc3cccc1c23)n1ccnc1` (stereo not drawn) [N-(3-(1H-imidazol-l-yl)butyl)benz(cd) indol-2-amine, dihydrochloride], for which the inhibition at 100 µM in assay [1] worked out at 92%. Besides, the “Avg. MABP in mm Hg (No. of Rats)” value in assay [2] was 104 mm Hg.

Consider `CC(CCNC1=Nc2cccc3cccc1c23)c1cccnc1` (centres unmarked) [N-(3-(3-Pyridinyl)butyl)benz(cd)indol-2-amine], for which the inhibition at 100 µM in assay [1] is 96%. In assay [2], the “Avg. MABP in mm Hg (No. of Rats)” value was determined as 110 mm Hg.

Regarding `O=C(O)/C=C/C(=O)O.c1cncc(CCCNC2=Nc3cccc4cccc2c34)c1` [N-(3-(3-Pyridinyl)propyl)benz(cd)indol-2-amine, fumarate], the inhibition at 100 µM in assay [1] worked out at 97%. In assay [2], the “Avg. MABP in mm Hg (No. of Rats)” value was 93 mm Hg.

Take `O=C(O)/C=C/C(=O)O.c1cncc(OCCCNC2=Nc3cccc4cccc2c34)c1` [N-(3-(3-Pyridinyloxy)propyl)benz(cd)indol-2-amine, fumarate]: the inhibition at 100 µM in assay [1] came to 94%. Further, the “Avg. MABP in mm Hg (No. of Rats)” value in assay [2] is given as 116 mm Hg.

Take `CC(CCCNC1=Nc2cccc3cccc1c23)n1ccnc1.O=C(O)/C=C/C(=O)O` (centres unmarked) [N-(4-(1H-imidazol-1-yl)pentyl)benz(cd)indol-2-amine, fumarate]: the inhibition at 100 µM in assay [1] was 99%. The “Avg. MABP in mm Hg (No. of Rats)” value in assay [2] was 97 mm Hg.

As to `c1ccc(CCCCNC2=Nc3cccc4cccc2c34)nc1` [N-(4-(2-Pyridinyl)butyl)benz(cd)indol-2-amine, sesqui-fumarate], the inhibition at 100 µM in assay [1] stood at 89%. Moreover, the “Avg. MABP in mm Hg (No. of Rats)” value in assay [2] came to 106 mm Hg.

Regarding `c1cc2c3c(cccc3c1)C(NCc1ccncc1)=N2` [N-(4-Pyridinylmethyl)benz(cd)indol-2-amine, sesqui-fumarate], the inhibition at 100 µM in assay [1] came to 97%. The “Avg. MABP in mm Hg (No. of Rats)” value in assay [2] was found to be 90 mm Hg.

As to `CC(CCNC1=Nc2cccc3cccc1c23)CCn1ccnc1` (centres unmarked) [N-(5-(1H-imidazol-1-yl)-3-methylpentyl)benz(cd)indol-2-amine,dihydrochloride], the inhibition at 100 µM in assay [1] is 100%. Further, the “Avg. MABP in mm Hg (No. of Rats)” value in assay [2] is 92 mm Hg.

With `O=C(O)/C=C/C(=O)O.c1cc2c3c(cccc3c1)C(NCCCCCn1ccnc1)=N2` [N-(5-(1H-imidazol-1-yl)pentyl)benz(cd)indol-2-amine, fumarate], the inhibition at 100 µM in assay [1] came to 95%. In addition, the “Avg. MABP in mm Hg (No. of Rats)” value in assay [2] was 111 mm Hg.

Consider `Cl.Cl.c1cc2c3c(cccc3c1)C(NCCCCCCCCn1ccnc1)=N2` [N-(8-(1H-imidazol-1-yl)octyl)benz(cd)indol-2-amine, dihydrochloride], for which, in assay [1], the inhibition at 100 µM is 100%. The “Avg. MABP in mm Hg (No. of Rats)” value in assay [2] was determined as 111 mm Hg.

Turning to `c1cc2c3c(cccc3c1)C(NCCCCCCCCCCCCn1ccnc1)=N2` [N-(12-(1H-imidazol-1-yl)dodecyl)benz(cd)indol-2-amine], the inhibition at 100 µM in assay [1] stood at 97%. Also, the “Avg. MABP in mm Hg (No. of Rats)” value in assay [2] is 133 mm Hg.

`O=C(O)/C=C/C(=O)O.c1cc2c3c(cccc3c1)C(NCc1ccc(Cn3ccnc3)cc1)=N2` [N-((4-(1H-imidazol-1-ylmethyl)phenyl)methyl)benz(cd)indol-2-amine, fumarate]: in assay [1], the inhibition at 100 µM amounted to 100%. In addition, the “Avg. MABP in mm Hg (No. of Rats)” value in assay [2] was found to be 121 mm Hg.

For the compound `O=C(c1ccccc1)N(CCCn1ccnc1)C1=Nc2cccc3cccc1c23` [N-Benz(cd)indol-2-yl-N-(3-(1H-imidazol-1-yl)propyl)benzamide], the inhibition at 100 µM in assay [1] turned out to be 94.5%. Moreover, the “Avg. MABP in mm Hg (No. of Rats)” value in assay [2] was 95 mm Hg.

Take `O=S(=O)(c1ccccc1)N(CCCn1ccnc1)C1=Nc2cccc3cccc1c23` [N-Benz(cd)indol-2-yl-N-(3-(1H-imidazol-1-yl)propyl)benzenesulfonamide]: in assay [1], the inhibition at 100 µM was determined as 93%. In assay [2], the “Avg. MABP in mm Hg (No. of Rats)” value was found to be 135 mm Hg.

In the case of `CC(=O)N(CCCc1cccnc1)C1=Nc2cccc3cccc1c23` [N-Benz(cd)indol-2-yl-N-(3-(3-pyridinyl)propyl)acetamide], the inhibition at 100 µM in assay [1] was determined as 95%. Besides, in assay [2], the “Avg. MABP in mm Hg (No. of Rats)” value stood at 85 mm Hg.

Take `COc1ccccc1C(=O)N(CCCCn1ccnc1)C1=Nc2cccc3cccc1c23` [N-Benz(cd)indol-2-yl-N-(4-(1H-imidazol-1-yl)butyl)-2-methoxybenzamide]: in assay [1], the inhibition at 100 µM stood at 93%. The “Avg. MABP in mm Hg (No. of Rats)” value in assay [2] was found to be 76 mm Hg.

For the compound `CC(=O)N(CCCCn1ccnc1)C1=Nc2cccc3cccc1c23` [N-Benz(cd)indol-2-yl-N-(4-(1H-imidazol-1-yl)butyl)acetamide], the inhibition at 100 µM in assay [1] was 98.5%. Besides, the “Avg. MABP in mm Hg (No. of Rats)” value in assay [2] is reported as 81 mm Hg.

Regarding `Cc1ccc(S(=O)(=O)Nc2ccc3c4c(cccc24)C(NCCCCn2ccnc2)=N3)cc1` [monoacetate], in assay [1], the inhibition at 100 µM amounted to 79%. Further, in assay [2], the “Avg. MABP in mm Hg (No. of Rats)” value turned out to be 125 mm Hg.
